Reference: patent publication US20250345512A1, “COMBINATION SODIUM-GLUCOSE COTRANSPORTER INHIBITOR (SGLTI) INSULIN THERAPY FOR GLYCEMIC CONTROL IN TYPE 1 DIABETES” (University of Virginia Patent Foundation, priority 2022, published 2025)

Tested on: participants with T1D
Assay: Randomized crossover clinical trial (NCT04201496): CGM glycemic outcomes with 5 mg daily empagliflozin adjunctive to AID (Control-IQ, CIQ) or PLGS (Basal-IQ, BIQ)
Type: in vivo, human
Experimental: FIG. 2 presents a study analysis relative to baseline, control IQ (CIQ) (e.g., AID), and basal IQ (BIQ) (e.g., PLGS) implementation, according to investigation that is demonstrable of one or more embodiments herein. Therein, an experimental arm (G1, G2) providing an initial daily dose of 5 mg empagliflozin (EMPA) is depicted against a control arm (G3, G4) without such dosing (NOEMPA). Relative characteristics of the analysis are provided below.
Study Design: A single-center, randomized, controlled, unblinded, crossover clinical trial (NCT04201496) compared four parallel groups, two groups in the experimental arm (EMPA) with 5 mg daily empagliflozin as adjunctive therapy to PLGS or AID, and two groups in the control arm (NOEMPA) with no drug and with a PLGS system (Basal-IQ, Tandem Diabetes Care) or AID system (Control-IQ, Tandem Diabetes Care). The groups within each arm differed from one another in the order of the randomly assigned crossover technological intervention, relative to PLGS being followed by AID or AID being followed by PLGS, respectively (FIG. 4). The study protocol was approved by the University of Virginia Institutional Review Board (IRB). An investigational device exemption (IDE), including an investigational new drug (IND) application for empagliflozin, was approved by the FDA. Safety aspects were overseen by an external data and safety monitoring board (DSMB). Participants: Major inclusion criteria were T1D treated with insulin for at least one year, use of continuous subcutaneous insulin infusion therapy for at least six months, age 18-65 yrs., no use of glucose lowering agents other than insulin, and Hb1Ac<9% (75 mmol/mol). Randomization: A (1:1:1:1) randomization assigned participants to either Group 1, AID-EMPA (4 weeks) followed by PLGS-EMPA (2 weeks), Group 2, PLGS-EMPA (2 weeks) followed by AID-EMPA (4 weeks), Group 3, AID-NOEMPA (4 weeks) followed by PLGS-NOEMPA (2 weeks), and Group 4, PLGS-NOEMPA (2 weeks) followed by AID-NOEMPA (4 weeks). Procedures: After confirmation of eligibility, participants underwent study equipment and medication training (experimental arm), or only study equipment training (control arm). Study equipment consisted of Dexcom G6® CGM (Dexcom Inc., San Diego, CA), Contour® Next blood glucose (Ascensia Diabetes Care, Basel, Switzerland) and Precision Xtra® blood ketone meters (Abbott, Alameda, CA) with their respective test strips; infusion sets, and the use of the t:slim X2™ insulin pump with Basal-IQ or Control-IQ technologies (Tandem Diabetes Care, San Diego, CA), according to randomization. […] Participants in the experimental arm were asked to record two days of baseline ketone values before initiating the use of the study drug. Thereafter, participants were directed to use the study CGM with EMPA for 1-2 weeks. A tolerance to the medication was assessed prior to the starting of the next study phase, including adherence to the protocol, ketone testing 2-4 times per day with monitored values not greater than 0.6 mmol/L on at least two successive occasions (the first testing upon waking in a fasted state), no adverse events relating to perineal infection or symptomatic postural hypotension, and no evidence of significant hypoglycemia <54 mg/dL, or any other listed adverse effects of the medication. Participants in the control arm were directed to use the study CGM for 1-2 weeks. Sample Size: The total sample size was projected to be 40 participants, assuming 1) 1:1:1:1 randomization; 2) 90% power and type 1 error a=0.01, further reinforcing the feasibility of hierarchical analyses. The projected recruitment sample was n=50, to accommodate up to 20% attrition rate without sacrificing statistical power. Analytical methods: For the primary analysis, TIR during the day in the 4-week AID period was compared between the two EMPA groups versus the two NOEMPA groups using a linear mixed-effects regression model while adjusting for pre-randomization HbAlc and age. […]

[1] = EMPA minus NOEMPA on same insulin system, adjusted for HbA1c
[2] = daytime (7:00-23:00), CIQ-EMPA vs. BIQ-NOEMPA, BIQ-EMPA vs. CIQ-NOEMPA
[3] = daytime (7:00-23:00), CIQ-EMPA vs. CIQ-NOEMPA, BIQ-EMPA vs. BIQ-NOEMPA
[4] = daytime (7:00-23:00), n = 16, mean ± SD
[5] = daytime (7:00-23:00), n = 16, median (IQR)

OC[C@H]1O[C@@H](c2ccc(Cl)c(Cc3ccc(O[C@H]4CCOC4)cc3)c2)[C@H](O)[C@@H](O)[C@@H]1O [BIQ-EMPA, empagliflozin]
24/7 HBGI - median (IQR) (24/7, n = 17): 3.3(1.8-4.7) | 24/7 LBGI - median (IQR) (24/7, n = 17): 0.7(0.6-1) | 24/7 glucose level <70 mg/dL (<3.9 mmol/L) - median % time (IQR) (24/7, n = 17): 1.7(0.9-2.7) % | 24/7 Mean glucose level - (24/7, n = 17, mean ± SD): 141 ± 30 mg/dL | Difference (95% CI): 24/7 HBGI [1]: −3.7(−6.5 to −1) | Difference (95% CI): 24/7 LBGI [1]: 0.1(−0.3 to 0.6) | Difference (95% CI): 24/7 Mean glucose level [1]: −24.1(−42.2 to −6) mg/dL | Difference (95% CI): 24/7 glucose level <70 mg/dL % time [1]: 0.2(−1.7 to 2.1) percentage points | Difference (95% CI): Daytime CGM CV [1]: −4.0(−6.8 to −1.2) % | Difference (95% CI): Daytime CGM SD [1]: −13.2(−21.6 to −4.8) mg/dL | Difference (95% CI): daytime glucose % Time in range of 70 to 180 mg/dL (EMPA minus NOEMPA on same insulin system, adjusted for pre-randomization HbA1c): 16.5(7.3 to 26) ^ percentage points | Primary: daytime glucose % Time in range of 70 to 180 mg/dL (3.9-10.0 mmol/L) (daytime 7:00 to 23:00 h, n = 17, mean ± SD): 80 ± 14% | Difference (95% CI): % CGM time <50 mg/dL (<2.8 mmol/L) [2]: −0.3 percentage points | Difference (95% CI): % CGM time <60 mg/dL (<3.3 mmol/L) [2]: −0.2 percentage points | Difference (95% CI): % CGM time >180 mg/dL (>10.0 mmol/L) [2]: −9.5 percentage points | Difference (95% CI): % CGM time >250 mg/dL (>13.9 mmol/L) [2]: −2.2 percentage points | Difference (95% CI): % CGM time >300 mg/dL (>16.7 mmol/L) [2]: −0.4 percentage points | Difference (95% CI): CGM HBGI [2]: −1.9 | Difference (95% CI): CGM LBGI [2]: 0.3 | Difference (95% CI): CGM SD [2]: -7.1 mg/dL | Difference (95% CI): Mean CGM glucose [2]: -14.9 mg/dL | Difference (95% CI): % CGM time 70-140 mg/dL (<3.9-7.8 mmol/L) [3]: 17.6 percentage points | Difference (95% CI): % CGM time >180 mg/dL (>10.0 mmol/L) [3]: −16.7 percentage points | Difference (95% CI): % CGM time >250 mg/dL (>13.9 mmol/L) [3]: −7.6 percentage points | Difference (95% CI): % CGM time >300 mg/dL (>16.7 mmol/L) [3]: −2.7 percentage points | Difference (95% CI): CGM HBGI [3]: −4 | Difference (95% CI): CGM LBGI [3]: −0.3 | Difference (95% CI): CGM SD [3]: -13.2 mg/dL | Difference (95% CI): Mean CGM glucose [3]: -23.8 mg/dL | Difference (95% CI): % CGM time <70-180 mg/dL (3.9-10.0 mmol/L) (daytime (7:00-23:00), CIQ-EMPA vs. CIQ-NOEMPA, BIQ-EMPA vs. BIQ-NOEMPA, listed as PLGS-EMPA): 16 percentage points | % CGM time 70-140 mg/dL (3.9-7.8 mmol/L) [4]: 58.1 ± 16.5% | % CGM time 70-180 mg/dL (3.9-10.0 mmol/L) [4]: 80 ± 14.5% | CGM CV (%) [4]: 35.7 ± 3.5% | CGM SD [4]: 45 ± 14.6 mg/dL | Mean CGM glucose [4]: 139 ± 26 mg/dL | % CGM time 70-180 mg/dL (3.9-10.0 mmol/L) (daytime (7:00-23:00), n = 16, mean ± SD, listed as PLGS-EMPA): 80±14.5% | % CGM time <50 mg/dL (<2.8 mmol/L) [5]: 0(0-0.4) % | % CGM time <60 mg/dL (<3.3 mmol/L) [5]: 0.5(0.1-0.9) % | % CGM time <70 mg/dL (<3.9 mmol/L) [5]: 1.7(0.9-2.7) % | % CGM time >180 mg/dL (>10.0 mmol/L) [5]: 11.3(5.3-22.4) % | % CGM time >250 mg/dL (>13.9 mmol/L) [5]: 1.7(0.1-4.4) % | % CGM time >300 mg/dL (>16.7 mmol/L) [5]: 0.1(0-0.8) % | CGM HBGI [5]: 2.8(1.6-4.9) | CGM LBGI [5]: 0.7(0.6-0.9) | Daytime CGM CV - % (daytime, n = 17, mean ± SD): 30.4 ± 3.5% | Daytime CGM SD - (daytime, n = 17, mean ± SD): 44.9 ± 14.7 mg/dL | Difference: CGM HBGI (overall, CIQ-EMPA vs. BIQ-NOEMPA, BIQ-EMPA vs. CIQ-NOEMPA): −1.6
